Data published in patent publication US4283398A, “Cephalosporins” (Mitsui Toatsu Chemicals, Inc., priority 1978, dated 1981).
In brackets after ≈: the same amount, converted by molar mass. Where two headings read alike, the source gives them in different places.

Tests used:
[1] = system: Pseudomonas aeruginosa (NCTC 7244); experiment: MIC in HIB medium at different inocula (turbidity); type: cell-based; conditions: NCTC7244, 18 h, 37° C.
Experimental: (§1) The compounds obtained in Synthesis Examples 1 and 2 were tested in the following manner.
(§2) A suspension of Pseudomonas aeruginosa (NCTC 7244) cultivated at 37° C. for 18 hours in a heart infusion broth medium (HIB medium) in a final amount of 10^5, 10^6 and 10^7 cells/ml in an HIB medium containing each of the test compounds which was obtained in the same way as in Referential Example 1 except that the maximum concentration of the test compound was 200 μg/ml. The bacterial strain was cultivated at 37° C. for 18 hours, and the turbidity of the culture broth was evaluated with the naked eye. The minimum concentration of the test compound at which no turbidity was noted was defined as MIC.

[2] = system: Pseudomonas aeruginosa (NCTC 7244); experiment: minimum bactericidal concentration (MBC); type: cell-based; conditions: NCTC7244, 18 h, subculture on HIA medium, 37° C.
Experimental: as §1, §2
After the determination of MIC, one platinum loopful of each of the culture broths in various concentrations was taken out from the test tubes, and inoculated in a separately provided plate of an HIA medium not containing the test compound, and incubated at 37° C. for 18 hours. The growth of the bacterial strain was evaluated.

[3] = blood level in rats after intramuscular administration; type: in vivo; conditions: rat, im, 20 mg/kg i.m., serum, read-out: Blood level after administration (average value ± standard deviation); for concentration at 0.25 h: 15 minutes; for concentration at 0.5 h: 30 minutes; for concentration at 1 h: 60 minutes; for concentration at 2 h: 120 minutes
Experimental: The compounds of this invention prepared in synthesis Examples 1 and 2 were each administered intramuscularly to rats, and the concentrations of the compounds in the blood were determined.
Each of the test compounds was intramuscularly injected into the femoral part of rats in a customary manner in a dose of 20 mg/kg for each rat. The blood was drawn by incising the cervical artery and vein at the end of 15 minutes, 30 minutes, 60 minutes, 120 minutes, and 240 minutes after the injection. The separated sera were used for the measurement of the blood level of the test compound. The concentrations of the test compounds in the sera were determined by a thin-layer cup method using Micrococcus luteus ATCC 9341 as an assay microorganism.

[4] = system: Salmonella enteritidis (KB-21); experiment: minimum growth inhibitory concentration (MIC) method; type: cell-based; conditions: Salmonella enterica, read-out: Minimum growth inhibitory concentration
Experimental: (§3) The antibacterial activities of the cephalosporins of this invention were measured using the sodium salts of the compounds obtained in Synthesis Examples 1 and 2. The procedure and the results are shown in Referential Example 1.
(§4) Carbenicillin sodium salt (CB-PC) and cephazoline sodium salt (CEZ) were used as controls.
(§5) The antibacterial activities of the test compounds against various Gram-positive and Gram-negative bacteria were determined in a customary manner by the minimum growth inhibitory concentration method (MIC method).
(§6) A commercially available heart infusion agar medium (to be abbreviated HIA medium) was used as an assay medium, and a commercially available trypto-soy bouillon medium (to be abbreviated TSB) was used as a medium for the growth of test bacterial strains.
(§7) The test compound was diluted with the melted HIA medium to 100 μg/ml as a maximum concentration, and then serially diluted double. The dilutions were poured into sterilized Petri dishes respectively and allowed to cool and solidify to prepare plates containing the test compound.
(§8) The test bacterial strain was cultivated at 37° C. for 18 to 24 hours in the TSB medium. The culture broth was diluted to 50 to 500 times with a freshly prepared TSB culture medium, and one platinum loopful of the dilution was inoculated in each of the plates containing the test compound. The plate was incubated at 37° C. for 18 hours, and the state of growth of the strain on the plate was observed, and the minimum growth inhibitory concentration (MIC) of the test compound was determined.

[5] = system: Klebsiella pneumonia (F-5089); experiment: as above; type: cell-based; conditions: Klebsiella pneumoniae, HIA medium, 37° C., 18 hours, sodium salts
Experimental: as §3, §4, §5, §6, §7, §8

[6] = Salmonella enteritidis KB-21, HIA medium, 37° C., 18 hours, sodium salts

Row | Compound | MIC ([1]; inoculum 10^5 cells/ml) [µg/mL] | MIC ([1]; inoculum 10^6 cells/ml) [µg/mL] | MIC ([1]; inoculum 10^7 cells/ml) [µg/mL] | MBC ([2]; inoculum 10^5 cells/ml) [µg/mL] | MBC ([2]; inoculum 10^6 cells/ml) [µg/mL] | MBC ([2]; inoculum 10^7 cells/ml) [µg/mL] | concentration at 0.25 h [3] [ng/mL] | concentration at 0.5 h [3] [ng/mL] | concentration at 1 h [3] [ng/mL] | concentration at 2 h [3] [ng/mL] | MIC [4, 6] [µg/mL] | MIC ([4]; ENTERITIDIS, 18 h) [µg/mL] | MIC [5] [µg/mL]
1 | Cn1nnnc1SCC1=C(C(=O)O)N2C(=O)C(NC(=O)[C@H](NC(=O)c3cnc4c(c3O)C(=O)CCC4)c3ccccc3)C2SC1 (single isomer, unassigned) [Synthesis Example 1, 7-[D-(-)-α-(4-hydroxy-5-oxo-5,6,7,8-tetrahydroquinoline-3-carboxamide)phenylacetamido)-3-[[(1-methyl-1H-tetrazol-5-yl)thio]methyl]-Δ^3-cephem-4-carboxylic acid] | 12.5 (≈ 19.2 µM) | 12.5 (≈ 19.2 µM) | 25 (≈ 38.4 µM) | 12.5 (≈ 19.2 µM) | 12.5 (≈ 19.2 µM) | > 200 | 12100 ± 3600 | 10500 ± 2200 | 9100 ± 3200 | 4800 ± 2100 | 0.78 | – | –
2 | Cn1nnnc1SCC1=C(C(=O)O)N2C(=O)C(NC(=O)[C@H](NC(=O)c3cnc4c(c3O)C(=O)CCC4)c3ccc(O)cc3)C2SC1 (single isomer, unassigned) [Synthesis Example 2, 7-[D-(-)-α-(4-hydroxy-5-oxo-5,6,7,8-tetrahydroquinoline-3-carboxamide)-α-(4-hydroxyphenyl)acetamido]-3-[[(1-methyl-1H-tetrazol-5-yl)thio]methyl]-Δ^3-cephem-4-carboxylic acid] | 6.25 (≈ 9.37 µM) | 6.25 (≈ 9.37 µM) | 12.5 (≈ 18.7 µM) | 6.25 (≈ 9.37 µM) | 12.5 (≈ 18.7 µM) | > 200 | 20000 ± 1400 | 14400 ± 2500 | 8000 ± 4000 | 3200 ± 1200 | 0.39 | – | –
3 | CC1(C)S[C@@H]2[C@H](NC(=O)C(C(=O)O)c3ccccc3)C(=O)N2[C@H]1C(=O)O (stereo partly drawn) [CB-PC, disodium-α-carboxybenzyl penicillin, reference compound] | 50 | 100 | 200 | 100 | 100 | > 200 | – | – | – | – | – | 1.56 | 50
4 | Cc1nnc(SCC2=C(C(=O)O)N3C(=O)[C@@H](NC(=O)Cn4cnnn4)[C@H]3SC2)s1 [CEZ, sodium 7-[1-(1H)-tetrazoylacetamido]-3-[2-(5-methyl-1,3,4-thiadiazoyl)-thiomethyl]-Δ^3, cephem-4-carboxylate, reference compound] | > 200 | > 200 | > 200 | > 200 | > 200 | > 200 | – | – | – | – | – | 1.56 | 3.13
